Assay results: publication PMC9569578, “In Planta, In Vitro and In Silico Studies of Chiral N^6-Benzyladenine Derivatives: Discovery of Receptor-Specific S-Enantiomers with Cytokinin or Anticytokinin Activities” (International Journal of Molecular Sciences, 2022)

Key:
Experiment in all cases: radioligand competition with 3H-isopentenyladenine, plant microsomes
Assay type in all cases: binding
Settings in all cases: 1 µM compound vs 3H-iP (2 pmol per sample), membranes of N. benthamiana
AHK2 = target: T1, AHK2 (Arabidopsis thaliana, UniProt Q9C5U2)
T1 construct: receptor fused with GFP, transiently expressed in Nicotiana benthamiana leaves; microsomal membranes
T1 sequence (Q9C5U2 1-1176): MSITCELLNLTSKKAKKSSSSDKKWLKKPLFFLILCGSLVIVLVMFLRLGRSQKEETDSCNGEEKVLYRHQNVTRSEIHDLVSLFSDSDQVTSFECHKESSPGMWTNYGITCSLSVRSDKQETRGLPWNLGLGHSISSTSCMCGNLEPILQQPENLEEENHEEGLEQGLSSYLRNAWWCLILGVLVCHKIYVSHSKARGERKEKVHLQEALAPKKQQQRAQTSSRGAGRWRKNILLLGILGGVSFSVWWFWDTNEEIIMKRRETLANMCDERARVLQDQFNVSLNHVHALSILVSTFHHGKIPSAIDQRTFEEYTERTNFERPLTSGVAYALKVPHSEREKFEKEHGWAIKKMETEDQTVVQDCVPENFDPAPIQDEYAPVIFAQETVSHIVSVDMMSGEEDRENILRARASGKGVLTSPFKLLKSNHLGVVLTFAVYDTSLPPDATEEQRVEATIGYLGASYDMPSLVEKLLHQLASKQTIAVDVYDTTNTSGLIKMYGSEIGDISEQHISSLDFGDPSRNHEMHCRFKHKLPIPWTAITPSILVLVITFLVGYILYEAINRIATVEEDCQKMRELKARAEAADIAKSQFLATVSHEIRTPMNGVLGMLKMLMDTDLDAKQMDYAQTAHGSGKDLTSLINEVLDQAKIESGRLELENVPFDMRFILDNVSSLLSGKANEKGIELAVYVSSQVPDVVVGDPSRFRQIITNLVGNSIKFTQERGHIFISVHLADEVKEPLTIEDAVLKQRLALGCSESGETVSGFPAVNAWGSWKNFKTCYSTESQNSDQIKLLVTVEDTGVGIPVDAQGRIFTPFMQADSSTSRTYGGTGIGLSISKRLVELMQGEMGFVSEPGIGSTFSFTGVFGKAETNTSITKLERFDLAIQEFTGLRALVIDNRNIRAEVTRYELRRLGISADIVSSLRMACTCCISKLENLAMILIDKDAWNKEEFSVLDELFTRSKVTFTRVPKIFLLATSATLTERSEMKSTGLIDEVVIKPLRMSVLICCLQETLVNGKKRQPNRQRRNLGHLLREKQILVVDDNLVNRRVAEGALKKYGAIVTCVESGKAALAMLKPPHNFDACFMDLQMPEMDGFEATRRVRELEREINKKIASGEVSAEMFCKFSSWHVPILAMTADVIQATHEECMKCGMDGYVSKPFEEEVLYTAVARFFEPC
Text: radioligand competition with 3H-isopentenyladenine, plant microsomes on AHK2

AHK3 = target: T2, AHK3 (Arabidopsis thaliana, UniProt Q9C5U1)
T2 construct: receptor fused with GFP, transiently expressed in Nicotiana benthamiana leaves; microsomal membranes
T2 sequence (Q9C5U1 1-1036): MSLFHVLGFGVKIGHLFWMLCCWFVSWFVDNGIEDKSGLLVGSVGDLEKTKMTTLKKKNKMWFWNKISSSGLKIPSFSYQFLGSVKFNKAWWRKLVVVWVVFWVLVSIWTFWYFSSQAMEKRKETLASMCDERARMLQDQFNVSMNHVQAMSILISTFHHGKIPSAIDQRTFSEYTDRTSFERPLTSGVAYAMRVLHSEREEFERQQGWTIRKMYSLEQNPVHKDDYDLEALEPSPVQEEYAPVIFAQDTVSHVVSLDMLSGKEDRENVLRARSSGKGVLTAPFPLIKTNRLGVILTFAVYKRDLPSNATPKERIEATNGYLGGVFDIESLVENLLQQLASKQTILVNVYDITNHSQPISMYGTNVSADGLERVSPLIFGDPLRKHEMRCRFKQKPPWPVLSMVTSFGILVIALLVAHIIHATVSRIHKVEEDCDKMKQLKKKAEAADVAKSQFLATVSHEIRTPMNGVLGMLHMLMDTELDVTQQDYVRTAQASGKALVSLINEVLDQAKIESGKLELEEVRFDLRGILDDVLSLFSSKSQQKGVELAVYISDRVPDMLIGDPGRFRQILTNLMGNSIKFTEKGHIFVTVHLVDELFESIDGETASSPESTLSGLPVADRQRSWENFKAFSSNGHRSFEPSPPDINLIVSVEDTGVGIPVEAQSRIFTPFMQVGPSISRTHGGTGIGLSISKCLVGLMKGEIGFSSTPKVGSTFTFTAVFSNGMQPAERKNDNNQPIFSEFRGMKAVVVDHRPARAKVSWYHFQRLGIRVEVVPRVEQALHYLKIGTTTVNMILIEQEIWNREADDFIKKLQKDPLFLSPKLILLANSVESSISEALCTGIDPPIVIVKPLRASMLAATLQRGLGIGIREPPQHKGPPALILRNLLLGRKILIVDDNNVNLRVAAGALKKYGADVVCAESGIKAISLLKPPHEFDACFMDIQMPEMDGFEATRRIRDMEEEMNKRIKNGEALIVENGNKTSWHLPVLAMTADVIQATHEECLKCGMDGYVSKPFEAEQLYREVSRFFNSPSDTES
Text: radioligand competition with 3H-isopentenyladenine, plant microsomes on AHK3

CRE1/AHK4 = target: T3, CRE1/AHK4 (Arabidopsis thaliana, UniProt Q9C5U0)
T3 construct: receptor fused with GFP, transiently expressed in Nicotiana benthamiana leaves; microsomal membranes
T3 sequence (Q9C5U0 whole entry, the tested form may be a part): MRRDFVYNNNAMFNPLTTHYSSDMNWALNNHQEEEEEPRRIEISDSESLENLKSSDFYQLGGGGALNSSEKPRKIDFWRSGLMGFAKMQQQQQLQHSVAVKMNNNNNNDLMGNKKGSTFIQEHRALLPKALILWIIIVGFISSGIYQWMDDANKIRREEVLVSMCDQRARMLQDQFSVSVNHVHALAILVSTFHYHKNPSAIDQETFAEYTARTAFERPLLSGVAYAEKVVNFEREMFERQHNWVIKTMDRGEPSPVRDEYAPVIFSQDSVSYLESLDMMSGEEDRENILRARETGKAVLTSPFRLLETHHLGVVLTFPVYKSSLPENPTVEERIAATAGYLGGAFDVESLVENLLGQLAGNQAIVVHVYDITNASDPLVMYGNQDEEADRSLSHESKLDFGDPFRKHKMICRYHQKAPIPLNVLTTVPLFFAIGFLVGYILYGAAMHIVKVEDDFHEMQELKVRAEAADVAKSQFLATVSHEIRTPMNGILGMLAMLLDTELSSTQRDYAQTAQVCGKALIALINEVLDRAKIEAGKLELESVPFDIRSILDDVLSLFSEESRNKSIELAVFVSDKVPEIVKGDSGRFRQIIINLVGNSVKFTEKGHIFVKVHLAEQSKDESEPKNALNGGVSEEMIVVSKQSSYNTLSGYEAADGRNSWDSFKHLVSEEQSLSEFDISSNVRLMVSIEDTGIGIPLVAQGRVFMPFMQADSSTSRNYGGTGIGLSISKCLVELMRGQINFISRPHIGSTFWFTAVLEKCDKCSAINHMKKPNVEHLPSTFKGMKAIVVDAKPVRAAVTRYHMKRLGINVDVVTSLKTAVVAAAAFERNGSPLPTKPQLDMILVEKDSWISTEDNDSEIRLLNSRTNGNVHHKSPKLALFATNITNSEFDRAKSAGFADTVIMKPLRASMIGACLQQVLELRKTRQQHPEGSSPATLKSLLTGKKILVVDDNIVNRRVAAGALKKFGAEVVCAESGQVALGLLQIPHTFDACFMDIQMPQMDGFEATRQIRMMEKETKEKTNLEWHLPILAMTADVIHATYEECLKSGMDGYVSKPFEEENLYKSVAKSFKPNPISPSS
Text: radioligand competition with 3H-isopentenyladenine, plant microsomes on CRE1/AHK4

АНК2 / 1 μM (AHK2) [%] | АНК3 / 1 μM (AHK3) [%] | CRE1/AHK4 / 1 μM (CRE1/AHK4) [%] | SMILES
8.9 ± 4.9 | 46.5 ± 2.2 | – | C[C@H](Nc1ncnc2[nH]cnc12)c1ccccc1 [5b, N^6-((S)-α-methylbenzyl) adenine]
42.6 ± 0.4 | 88.9 ± 0.7 | 74.1 ± 1.6 | C[C@@H](Nc1nc(Cl)nc2[nH]cnc12)c1ccccc1 [7a, 2-chloro,N^6-((R)-α-methylbenzyl) adenine]
3.1 ± 0.4 | 80.6 ± 1.5 | 37.1 ± 1.2 | C[C@H](Nc1nc(Cl)nc2[nH]cnc12)c1ccccc1 [7b, 2-chloro,N^6-((S)-α-methylbenzyl) adenine]
58.8 ± 1.3 | 54.7 ± 1.1 | 30.4 ± 1.0 | C[C@@H](Nc1nc(N)nc2[nH]cnc12)c1ccccc1 [8a, 2-amino,N^6-((R)-α-methylbenzyl) adenine]
8.7 ± 0.9 | 74.7 ± 1.7 | 45.8 ± 0.3 | C[C@H](Nc1nc(F)nc2nc[nH]c12)c1ccccc1 [6b, 2-fluoro,N^6-((S)-α-methylbenzyl) adenine]
88.9 ± 0.5 | 97.7 ± 1.0 | 87.7 ± 1.0 | C[C@@H](Nc1ncnc2[nH]cnc12)c1ccccc1 [5a, N^6-((R)-α-methylbenzyl) adenine]
92.1 ± 1.0 | 99.8 ± 1.5 | 97.2 ± 0.9 | C[C@@H](Nc1nc(F)nc2[nH]cnc12)c1ccccc1 [6a, 2-fluoro,N^6-((R)-α-methylbenzyl) adenine]
